Here are results for 1 compound from patent US9913831B2, “Methods and compositions for treating nephrogenic diabetes insipidus” (UNIVERSITY OF UTAH RESEARCH FOUNDATION, priority 2011, dated 2018).

The data set relates to lithium-treated rats. The experiment in a line: Effect of clopidogrel on lithium-induced alterations in rats (natriuresis, urinary nitrates/nitrites, hematocrit, body and kidney weight). The settings on record: 2 weeks. The procedure: Animal experiments: Male Sprague-Dawley rats were purchased from Charles River (Wilmington, Mass., USA), and Brattleboro mutant rats that lack AVP (HsdBlu:BRAT-Avp^di) were obtained from the Rat Resource & Research Center (RRRC), University of Missouri, Columbia, Mo., USA. Mice (B6D2 genetic background) were bred in-house. […] Lithium-added chow (40 mmol Li/kg chow) was custom prepared (MP Biomedicals, Aurora, Ohio, USA). Clopidogrel bisulfate was administered orally by powdering and dissolving Plavix® tablets (Bristol-Myers Squibb, New York, N.Y., USA) in drinking water. The concentration of the drug in the drinking water was adjusted daily based on the water consumption of the animals the previous day. The clopidogrel dose used in Sprague-Dawley rats (20 mg/kg bw/day) was the same as used by other investigators (de La Crux et al, 2003; Graciano et al, 2008). In mice, clopidogrel was administered at a dose of 80 mg/kg bw/day. When compared with the human clinical dose of Plavix®, and adjusted to the Km factor (ratio of body surface area to body weight) of the species (man vs. rat or mouse) (Reagan-Shaw et al, 2007), the doses used in rats or mice were 2.5- and 5-fold higher, respectively. […] A higher dose of clopidogrel (40 mg/kg bw/day) was used in Brattleboro rats to ensure an unequivocal outcome whether positive or negative. Twenty-four hour urine samples were collected by placing the animals in the appropriate metabolic cages designed for rats and mice. Blood and kidney tissues were collected at necropsy. Cortical, outer and inner medullary regions of the kidneys were dissected out and processed for laboratory assays.
Blood, urine and tissue analysis: Osmolalities of clear urine samples were measured by vapor pressure method (Wescor, Logan, Utah, USA). Microhematocrit was determined by centrifuging free-flowing blood collected in heparinized capillary tubes in a microhematocrit centrifuge (Clay Adams, Parsippany, N.J., USA). Urinary excretion of AVP was quantified by a commercial ELISA kit (Enzo Life Sciences, Farmingdale, N.Y., USA). Total nitrate/nitrite contents of urine samples were determined by a commercial kit (Cayman Chemical, Ann Arbor, Mich.).Na, Li and K levels in serum and/or urine were determined on EasyElectrolyte® (Medica Corp., Bedford, Mass., USA). Based on serum and urine analysis, electrolyte-free clearance [CH20(e)] was computed using the formula CH20(e)=V((1−UNa+UK)/PNa), where V=urine volume, UNa and UK are urine Na and K, and PNa is plasma Na, respectively (Schrier 2006). Lithium levels in inner medullary tissue homogenates were assayed by Inductively Coupled Plasma-Mass Spectrometry (ICPMS) by Exova (Santa Fe Springs, Calif., USA), and were normalized to their respective protein contents.
Statistical Analysis: All quantitative data are expressed as mean±standard error (SE). Comparisons among the means of multiple groups were made by one-way analysis of variance (ANOVA), followed by the assessment of statistical significance by Tukey-Kramer Multiple Comparison Test or Student-Newman-Keuls Multiple Comparison Test. Differences between the means of two groups were determined by unpaired t test or where applicable, by Mann-Whitney nonparametric test. P values less than 0.05 were considered significant. GraphPad Instat® (GraphPad Software, Inc., La Jolla, Calif.) was used for statistical analysis.

The mark [1] stands for this setting: rats, lithium treatment alone (40 mmol Li/kg chow).

As to `[Li]` [Lithium, lithium], the “kidney weight as a percent of body weight” value (lithium-treated rats with or without added clopidogrel) is reported as “did not change”. Besides, under setting [1], the “gain in body weight” value is “significantly low” and the terminal hematocrit entry is recorded as “significant elevation”.
